Experimental findings from patent US8114882B2, “(1H-indol-7-yl)-(pyrimidin-2-ylamino)methanone derivatives and related compounds as IGF-R1 inhibitors for the treatment of cancer” (Merck Patent GmbH, priority 2005, dated 2012) are described below.

The assay has as its target T1, IGF-1R (Homo sapiens, UniProt P08069).
T1 construct: Cultivated human tumour cells which express the IGF1 receptor (IGF1R); endogenous in cells
Kind of assay: Inhibition of IGF-1R (IC50): IGF1-stimulated IGF1R autophosphorylation in human tumour cells, Capture-ELISA or LUMINEX. Type of assay: cell-based. As to conditions: Table 1; human tumour cells expressing IGF1R (for example MCF-7 or Calu-6), 45 min pre-treatment, 5 min IGF1 stimulation. The protocol:
Cultivated human tumour cells which express the IGF1 receptor (IGF1R) (for example MCF-7 or Calu-6) are stimulated using human IGF1, the natural ligand of IGF1R. The stimulation induces autophosphorylation of tyrosine residues in the cytoplasmatic IGF1R domain, which triggers signal transduction cascades, which result in apoptosis inhibition and cell proliferation.
The amount of phosphorylated IGF1R is determined by a receptor-specific Capture-ELISA or an analogous LUMINEX assay. The IGF1R from cell lysates is bound to a 96-well ELISA plate or LUMINEX beads (“capturing”) by means of a specific antibody, and the tyrosine phosphorylation is detected using a biotin-labelled anti-phosphotyrosine antibody and a streptavidin peroxidase conjugate by a chemoluminescence method or by means of a fluorescence-labelled anti-phosphotyrosine antibody.
In order to determine the activity of kinase inhibitors, cells are pre-treated with increasing concentrations of these compounds for 45 min and subsequently stimulated using IGF1 for 5 min. As internal control, the biological activity of the ligand IGF1 is checked and a concentration series of an IGF1R reference inhibitor measured.

T1 sequence (P08069 31-1367): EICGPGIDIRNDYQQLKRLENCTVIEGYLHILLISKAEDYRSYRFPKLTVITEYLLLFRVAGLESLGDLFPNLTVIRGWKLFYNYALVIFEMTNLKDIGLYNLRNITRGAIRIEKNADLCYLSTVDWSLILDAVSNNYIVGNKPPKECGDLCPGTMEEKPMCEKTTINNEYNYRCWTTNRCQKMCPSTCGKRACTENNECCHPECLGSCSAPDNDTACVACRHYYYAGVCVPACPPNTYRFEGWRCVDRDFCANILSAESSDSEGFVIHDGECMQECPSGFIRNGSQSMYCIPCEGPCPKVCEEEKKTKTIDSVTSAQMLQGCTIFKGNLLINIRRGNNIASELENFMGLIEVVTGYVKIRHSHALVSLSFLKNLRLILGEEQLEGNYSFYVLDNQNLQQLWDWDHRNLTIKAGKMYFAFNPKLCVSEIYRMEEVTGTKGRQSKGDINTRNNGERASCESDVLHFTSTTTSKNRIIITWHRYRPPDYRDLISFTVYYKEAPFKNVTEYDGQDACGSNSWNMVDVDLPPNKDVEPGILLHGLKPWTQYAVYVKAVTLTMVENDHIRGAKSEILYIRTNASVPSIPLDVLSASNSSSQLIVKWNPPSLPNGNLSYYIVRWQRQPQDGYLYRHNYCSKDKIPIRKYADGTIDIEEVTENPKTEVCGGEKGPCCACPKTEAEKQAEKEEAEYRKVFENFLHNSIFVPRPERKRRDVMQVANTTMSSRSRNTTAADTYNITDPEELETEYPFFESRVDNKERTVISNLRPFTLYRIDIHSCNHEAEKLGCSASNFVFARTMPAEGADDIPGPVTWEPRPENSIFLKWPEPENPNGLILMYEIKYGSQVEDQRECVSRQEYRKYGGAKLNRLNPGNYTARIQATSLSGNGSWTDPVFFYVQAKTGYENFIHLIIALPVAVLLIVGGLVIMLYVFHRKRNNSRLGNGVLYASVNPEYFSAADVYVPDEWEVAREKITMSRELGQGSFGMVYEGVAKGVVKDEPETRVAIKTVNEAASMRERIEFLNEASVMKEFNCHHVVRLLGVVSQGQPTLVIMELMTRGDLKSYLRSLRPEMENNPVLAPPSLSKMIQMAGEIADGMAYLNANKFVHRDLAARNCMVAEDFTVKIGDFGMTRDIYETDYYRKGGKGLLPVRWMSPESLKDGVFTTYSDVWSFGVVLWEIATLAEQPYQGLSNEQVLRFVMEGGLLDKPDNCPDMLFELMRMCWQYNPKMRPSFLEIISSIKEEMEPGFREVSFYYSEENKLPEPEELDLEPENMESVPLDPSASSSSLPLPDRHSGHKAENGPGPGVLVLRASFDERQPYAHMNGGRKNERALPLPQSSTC

In general, IC50 refers to the point on the concentration scale where inhibition reaches its midpoint. `O=C(c1ccc(Nc2ccnc(Cl)n2)cc1)c1cccc2cc[nH]c12`: the IC50 was 2.6 µM. As for `O=C(c1ccc(Nc2ccnc(Cl)n2)cc1)c1cccc2c1NCC2`, the figure is 7.85 µM; as for `O=C(c1ccc(Nc2nccc(NCc3cccnc3)n2)cc1)c1cccc2c1NCC2`, 2.4 µM; as for `COc1cc(Nc2nccc(Nc3ccc(C(=O)c4cccc5cc[nH]c45)cc3)n2)cc(OC)c1OC`, 2.2 µM.

For the molecule `O=C(c1ccc(Nc2ccnc(Nc3ccc(C(=O)c4cccc5cc[nH]c45)cc3)n2)cc1)c1cccc2cc[nH]c12`, the concentration for half-maximal inhibition (IC50) was found to be 1.8 µM. `N#Cc1c[nH]c2c(C(=O)c3ccc(Nc4ccnc(Nc5ccc(C(=O)c6cccc7c(C#N)c[nH]c67)cc5)n4)cc3)cccc12`: the IC50 was determined as 0.49 µM.

`N#CCCNc1nccc(Nc2ccc(C(=O)c3cccc4cc[nH]c34)cc2)n1`: the IC50 was 3.1 µM.

With `O=C(c1ccc(Nc2ccnc(NCC3CC(O)C3)n2)cc1)c1cccc2cc[nH]c12` (stereo not drawn), the half-inhibitory concentration (IC50) was 1.2 µM.

On to `O=C(c1ccc(Nc2ccnc(Nc3ncc[nH]3)n2)cc1)c1cccc2cc[nH]c12`, for which the IC50 turned out to be 0.15 µM. For `O=C(c1c[nH]nc1Nc1nccc(Nc2cnc3ccccc3c2)n1)c1cccc2cc[nH]c12`, the concentration for half-maximal inhibition (IC50) was determined as 0.63 µM.

For `O=C(c1ccc(Nc2ccnc(Nc3cc(-c4ccccc4)[nH]n3)n2)cc1)c1cccc2cc[nH]c12`, the half-inhibitory concentration (IC50) is 10 µM. For `Cc1cc(Nc2nccc(Nc3ccc(C(=O)c4cccc5cc[nH]c45)cc3)n2)n[nH]1`, the half-inhibitory concentration (IC50) is 2.9 µM. For `O=C(c1ccc(Nc2ccnc(Nc3cc(-c4ccco4)[nH]n3)n2)cc1)c1cccc2cc[nH]c12`, the 50% inhibitory concentration (IC50) stood at 15 µM. `CC(C)(C)c1cc(Nc2nccc(Nc3ccc(C(=O)c4cccc5cc[nH]c45)cc3)n2)n[nH]1`: the IC50 stood at 12 µM.

Consider `O=C(c1ccc(Nc2ccnc(Nc3cc[nH]n3)n2)cc1)c1cccc2cc[nH]c12`, for which the IC50 was 2.4 µM.
